The values below come from US20240279215A1 (Cytokinetics, Incorporated, priority 2022, published 2024).

This assay deals with human NAMPT (Homo sapiens (Human), UniProt P43490). In words: NMN fluorescence biochemical assay (human recombinant NAMPT enzyme assay). In outline:
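NMN formed was detected by fluorescence (Ex/Em 355/460 nm) after acetophenone, KOH and formic acid derivatization. The cell-free reaction ran 60 min at ambient temperature with 6 nM human NAMPT, 150 μM nicotinamide, 20 μM PRPP, 2.5 mM ATP, pH 7.2 HEPES, and compound dose responses.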

Molecules are shown by their SMILES. Counter-ions that a name gives are not always drawn.

Usually EC50 stands for the midpoint of the concentration-response curve.

Chain of human NAMPT (P43490 whole entry): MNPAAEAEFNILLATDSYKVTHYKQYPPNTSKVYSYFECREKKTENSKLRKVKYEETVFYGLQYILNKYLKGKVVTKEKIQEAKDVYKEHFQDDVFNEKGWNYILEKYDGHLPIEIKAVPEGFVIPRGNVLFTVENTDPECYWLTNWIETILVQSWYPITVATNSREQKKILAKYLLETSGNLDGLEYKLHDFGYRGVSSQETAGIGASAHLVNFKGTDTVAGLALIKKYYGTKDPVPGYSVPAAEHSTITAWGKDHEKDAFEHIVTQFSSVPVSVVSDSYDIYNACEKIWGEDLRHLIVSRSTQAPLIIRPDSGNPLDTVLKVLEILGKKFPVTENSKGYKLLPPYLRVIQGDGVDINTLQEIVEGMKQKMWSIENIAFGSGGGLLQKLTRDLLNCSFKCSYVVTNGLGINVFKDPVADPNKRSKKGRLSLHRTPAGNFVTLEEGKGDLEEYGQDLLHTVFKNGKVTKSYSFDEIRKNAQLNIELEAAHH

For `O=C(Nc1ccc(CC2CCNCC2)cc1)OCc1ccc(Cl)cc1` [Compound 231, 4-chlorobenzyl (4-(piperidin-4-ylmethyl)phenyl)carbamate hydrochloride], the “AC1.4 Human” value stood at 2.13 µM and the EC50 was determined as 33.8 µM.
Take `CN(Cc1ccc(NC(=O)OCc2ccc(Cl)cc2)cc1)C(=O)c1cnco1` [Compound 130, (4-chlorophenyl)methyl N-(4-[(N-methyl-1-1,3-oxazol-5-ylformamido)methyl]phenyl}carbamate]: the “AC1.4 Human” value was 1.03 µM and the EC50 worked out at 8.13 µM.
`O=C(Nc1ccc(CC(=O)N2CCC[C@H](O)C2)cc1)OCc1ccc(Cl)cc1` [Compound 171, 4-chlorobenzyl (S)-(4-(2-(3-hydroxypiperidin-1-yl)-2-oxoethyl)phenyl)carbamate]: the “AC1.4 Human” value stood at 1.43 µM and the EC50 amounted to 9.75 µM.
Regarding `O=C(Nc1ccc(CNC(=O)N2CCOCC2)cc1)OCc1ccc(Cl)cc1` [Compound 270, (4-chlorophenyl)methyl N-{4-[(morpholine-4-carbonylamino)methyl]phenyl}carbamate], the “AC1.4 Human” value was 3.14 µM and the concentration for a half-maximal effect (EC50) came out at 47.2 µM.
On the same counts, the results for `Cc1nc(C)c(C(=O)N[C@@H](C)c2ccc(NC(=O)OCc3ccc(Cl)cc3)cc2)o1` [Compound 125, 4-chlorobenzyl (S)-(4-(1-(2,4-dimethyloxazole-5-carboxamido)ethyl)phenyl)carbamate] are 0.98 µM and 6.02 µM.
For `Cc1ccc(C(=O)NCc2ccc(NC(=O)OCc3ccc(OC(F)F)cc3)cc2)cn1` [Compound 275, (4-(difluoro-13-methyl)phenyl)methyl (4-((6-methylnicotinamido)methyl)phenyl)carbamate], the “AC1.4 Human” value came to 3.32 µM and the EC50 was 12.6 µM.
Take `CCc1cc(C(=O)NCc2ccc(NC(=O)OCc3ccc(Cl)cc3)cc2)n(C)n1` [Compound 208, (4-chlorophenyl)methyl N-(4-{[(5-ethyl-2-methylpyrazol-3-yl)formamido]methyl}phenyl)carbamate]: the “AC1.4 Human” value was found to be 1.87 µM and the EC50 stood at 17.4 µM.
Consider `O=C(Nc1ccc([C@@H]2CCCN(C3COC3)C2)cc1)OCc1cnco1` [Compound 380, oxazol-5-ylmethyl (S)-(4-(1-(oxetan-3-yl)piperidin-3-yl)phenyl)carbamate], for which the “AC1.4 Human” value stood at 0.84 µM and the EC50 was 41.5 µM.
On the same counts, the results for `CC(C)(C)OC(=O)N1CCC2(CC(Cc3ccc(NC(=O)OCc4cnco4)cc3F)C2)C1` (stereo not shown) [Compound 377, tert-butyl 2-(2-fluoro-4-(((oxazol-5-ylmethoxy)carbonyl)amino)benzyl)-6-azaspiro[3.4]octane-6-carboxylate] are 1.08 µM and 9.37 µM.
As for `O=C(Nc1ccc(Cc2ccncc2)cc1)OCc1ccc(C(F)F)cc1` [Compound 196, 4-(difluoromethyl)benzyl (4-(pyridin-4-ylmethyl)phenyl)carbamate], the “AC1.4 Human” value was determined as 1.75 µM and the EC50 was found to be 7.22 µM.
For `O=C(Nc1ccc(CCC2CCNCC2)cc1)OCc1cnco1` [Compound 252, oxazol-5-ylmethyl (4-(2-(piperidin-4-yl)ethyl)phenyl)carbamate hydrochloride] the same measures were 2.60 µM and 26.2 µM.
As to `Cn1cc(C(=O)NCc2ccc(NC(=O)OCc3ccc(Cl)cc3)cc2)cn1` [Compound 193, (4-chlorophenyl)methyl N-(4-{[(1-methylpyrazol-4-yl)formamido]methyl}phenyl)carbamate], the “AC1.4 Human” value was found to be 1.71 µM and the EC50 is 12.7 µM.
In the case of `NC(=O)c1ccc(COC(=O)Nc2ccc(Cc3ccncc3)cc2)cc1` [Compound 14, 4-carbamoylbenzyl (4-(pyridin-4-ylmethyl)phenyl)carbamate], the “AC1.4 Human” value is 0.23 µM and the EC50 amounted to 10.7 µM.
As to `CC1CN(C(=O)N[C@@H](C)c2ccc(NC(=O)OCc3ccc(Cl)cc3)cc2)C1` [Compound 144, (4-chlorophenyl)methyl N-{4-[(1S)-1-(3-methylazetidine-1-carbonylamino)ethyl]phenyl}carbamate], the “AC1.4 Human” value is 1.18 µM and the EC50 is 7.67 µM.
On the same counts, the results for `CC(=O)N1CC2CC(C1)C2Cc1ccc(NC(=O)OCc2cnco2)cc1` (stereo not shown) [Compound 438, oxazol-5-ylmethyl (4-((3-acetyl-3-azabicyclo[3.1.1]heptan-6-yl)methyl)phenyl)carbamate] are 0.04 µM and 2.7 µM.
On the same counts, the results for `O=C(Nc1ccc(CNC(=O)c2ocnc2C2CC2)cc1)OCc1ccc(Cl)cc1` [Compound 343, (4-chlorophenyl)methyl N-(4-{[(4-cyclopropyl-1,3-oxazol-5-yl)formamido]methyl}phenyl)carbamate] are 11.85 µM and 21.9 µM.
For `O=C(Nc1ccc(CC2C3CCC2CN(C2COC2)C3)cc1)OCc1cnco1` (stereo not shown) [Compound 425, oxazol-5-ylmethyl (4-((3-(oxetan-3-yl)-3-azabicyclo[3.2.1]octan-8-yl)methyl)phenyl)carbamate] the same measures were 0.57 µM and 52 µM.
As to `COC1CCN(C(=O)N[C@@H](C)c2ccc(NC(=O)OCc3ccc(Cl)cc3)cc2)CC1` [Compound 72, 4-chlorobenzyl (S)-(4-(1-(4-methoxypiperidine-1-carboxamido)ethyl)phenyl)carbamate], the “AC1.4 Human” value came to 0.62 µM and the EC50 stood at 5.27 µM.
On the same counts, the results for `O=C(Nc1ccc(CC2CC3CCC(C2)N3S(=O)(=O)N2CCC2)cc1)OCc1cnco1` (stereo not shown) [Compound 393, oxazol-5-ylmethyl (4-((8-(azetidin-1-ylsulfonyl)-8-azabicyclo[3.2.1]octan-3-yl)methyl)phenyl)carbamate] are 0.13 µM and 3.84 µM.
On the same counts, the results for `CN1CCN(Cc2ccc(NC(=O)OCc3ccc(Cl)cc3)cc2)C(=O)C1` [Compound 28, 4-chlorobenzyl (4-((4-methyl-2-oxopiperazin-1-yl)methyl)phenyl)carbamate] are 0.36 µM and 3.01 µM.
For `CS(=O)(=O)N1CCC(Cc2ccc(NC(=O)OCc3cnco3)cc2F)CC1` [Compound 448, oxazol-5-ylmethyl (3-fluoro-4-((1-(methylsulfonyl)piperidin-4-yl)methyl)phenyl)carbamate] the same measures were 0.13 µM and 4.5 µM.
Turning to `CCC(=O)N1CC2(CC(Cc3ccc(NC(=O)OCc4cnco4)cc3F)C2)C1` [Compound 402, oxazol-5-ylmethyl (3-fluoro-4-((2-propionyl-2-azaspiro[3.3]heptan-6-yl)methyl)phenyl)carbamate], the “AC1.4 Human” value was determined as 0.07 µM and the EC50 was determined as 12.4 µM.
Regarding `O=C(Nc1ccc(CC2CCN(C3COC3)CC2)cc1)OCc1cnco1` [Compound 80, oxazol-5-ylmethyl (4-((1-(oxetan-3-yl)piperidin-4-yl)methyl)phenyl)carbamate], the “AC1.4 Human” value was found to be 0.66 µM and the EC50 came out at 29 µM.
For `CC(C)C(=O)N1CCC(Cc2ccc(NC(=O)OCc3ccc(Cl)cc3)cc2)CC1` [Compound 87, 4-chlorobenzyl (4-((1-isobutyrylpiperidin-4-yl)methyl)phenyl)carbamate] the same measures were 0.68 µM and 1.75 µM.
On the same counts, the results for `O=C(Nc1ccc(Cc2cccnc2)cc1)OCc1ccc(Cl)cc1` [Compound 172, 4-chlorobenzyl (4-(pyridin-3-ylmethyl)phenyl)carbamate] are 1.43 µM and 3.54 µM.
On the same counts, the results for `Cc1ccc(C(=O)N(C)Cc2ccc(NC(=O)OCc3ccc(Cl)cc3)cc2)cn1` [Compound 104, (4-chlorophenyl)methyl N-(4-{[N-methyl-1-(6-methylpyridin-3-yl)formamido]methyl}phenyl)carbamate] are 0.85 µM and 5.06 µM.
On to `O=C(Nc1ccc(CNC(=O)c2ccncc2)cc1)OCc1ccc(Cl)cc1` [Compound 126, (4-chlorophenyl)methyl N-{4-[(pyridin-4-ylformamido)methyl]phenyl}carbamate], for which the “AC1.4 Human” value came to 0.99 µM and the EC50 turned out to be 4.06 µM.
On the same counts, the results for `COc1ccc(COC(=O)Nc2ccc(CN3CCN(C)CC3=O)cc2)cc1` [Compound 168, (4-methoxyphenyl)methyl N-{4-[(4-methyl-2-oxopiperazin-1-yl)methyl]phenyl}carbamate] are 1.40 µM and 13.9 µM.
On the same counts, the results for `O=C(Nc1ccc(CNC(=O)N2CCN(CC(F)F)CC2)cc1)OCc1ccc(Cl)cc1` [Compound 258, (4-chlorophenyl)methyl N-(4-{[4-(2,2-difluoroethyl)piperazine-1-carbonylamino]methyl}phenyl)carbamate] are 2.74 µM and 7.62 µM.
On the same counts, the results for `O=C(Nc1ccc(CC2CCN(C(=O)N3CCCCC3)CC2)cc1)OCc1cnco1` [Compound 461, oxazol-5-ylmethyl (4-((1-(piperidine-1-carbonyl)piperidin-4-yl)methyl)phenyl)carbamate] are 0.13 µM and 9.34 µM.
In the case of `CCc1ncoc1C(=O)N(C)Cc1ccc(NC(=O)OCc2ccc(Cl)cc2)cc1` [Compound 176, (4-chlorophenyl)methyl N-(4-{[1-(4-ethyl-1,3-oxazol-5-yl)-N-methylformamido]methyl}phenyl)carbamate], the “AC1.4 Human” value amounted to 1.47 µM and the EC50 came to 4.56 µM.
For `O=C(Nc1ccc(CCC2CCN(C(=O)C3COC3)CC2)cc1)OCc1cnco1` [Compound 13, oxazol-5-ylmethyl (4-(2-(1-(oxetane-3-carbonyl)piperidin-4-yl)ethyl)phenyl)carbamate] the same measures were 0.22 µM and 44.7 µM.
